Assay results from patent publication US20250197372A1 (priority 2020, published 2025).
Read-outs that look alike come from different tables or passages of the source.

Key:
Format in all cases: biochemical
[1] = molecular target: rat maltase (partially purified alpha-glucosidase from intestinal rat powder); experiment: Intestinal alpha-glucosidase assay, maltose substrate (Glucose GO Kit)
Procedure, shortened: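 Rat intestinal enzyme prep + test cpd dilutions, 60 min 37 °C; add maltose (maltase) or sucrose (sucrase), 30 min 37 °C; stop 90 °C 5 min. Glucose readout (glucose oxidase kit). IC50 from 4-PL fit of % inhibition vs conc.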

[2] = molecular target: recombinant human GAA (acid alpha-glucosidase) (Homo sapiens, UniProt P10253); experiment: Acid alpha-glucosidase (GAA) assay (4-methylumbelliferyl-alpha-D-pyranoside substrate, fluorescence)
Procedure, shortened: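 IC50 from 4-PL curve fit of percent inhibition, based on fluorescence (365/440 nm) of released methylumbelliferone relative to uninhibited enzyme. Compound dilutions and human GAA incubated 60 min, 37 °C, before 20 min substrate reaction at 37 °C, quenched at pH 10.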

[3] = molecular target: T1, recombinant alpha-glucosidase I (human full-length glucosidase I, Glu 1) (Homo sapiens, UniProt Q13724); experiment: Alpha-glucosidase I assay (Amplex Red glucose detection, synthetic trisaccharide substrate)
T1 construct: 6-His (C); made in house; host or cells: HEK-293T cells transduced with BacMam virus (virus raised in Sf9)
T1 sequence (Q13724 1-837): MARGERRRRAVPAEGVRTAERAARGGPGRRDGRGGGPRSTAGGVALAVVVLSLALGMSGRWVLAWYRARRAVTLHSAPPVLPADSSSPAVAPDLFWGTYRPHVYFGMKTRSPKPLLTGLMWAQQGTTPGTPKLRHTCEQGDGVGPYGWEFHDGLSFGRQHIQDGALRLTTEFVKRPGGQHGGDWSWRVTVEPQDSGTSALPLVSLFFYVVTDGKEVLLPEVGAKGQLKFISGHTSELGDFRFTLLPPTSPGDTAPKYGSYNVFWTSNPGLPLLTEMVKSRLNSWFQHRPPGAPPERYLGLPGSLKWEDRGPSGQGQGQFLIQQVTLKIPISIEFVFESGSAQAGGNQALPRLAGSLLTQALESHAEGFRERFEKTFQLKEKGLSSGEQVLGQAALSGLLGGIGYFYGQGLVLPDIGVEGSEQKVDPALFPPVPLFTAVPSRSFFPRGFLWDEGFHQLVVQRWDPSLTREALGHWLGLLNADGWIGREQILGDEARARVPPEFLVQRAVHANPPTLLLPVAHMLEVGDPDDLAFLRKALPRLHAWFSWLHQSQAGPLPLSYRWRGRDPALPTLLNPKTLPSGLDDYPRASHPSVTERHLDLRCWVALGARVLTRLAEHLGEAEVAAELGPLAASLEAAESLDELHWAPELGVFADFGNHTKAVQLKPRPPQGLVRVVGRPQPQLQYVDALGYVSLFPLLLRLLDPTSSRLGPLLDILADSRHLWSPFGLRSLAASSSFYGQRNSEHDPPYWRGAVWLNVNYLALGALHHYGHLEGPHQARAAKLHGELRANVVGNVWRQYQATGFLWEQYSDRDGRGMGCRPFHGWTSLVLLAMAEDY
Procedure, shortened: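 Compound dilution series incubated 60 min at 37° C with recombinant His-tagged human glucosidase I ([…]), after which trisaccharide substrate analog was added for 90 min at 37° C. Reaction quenched with 1.5M Tris pH 8; D-glucose detected by Amplex Red fluorescence, 560/590 nm. 4-PL curve fit of percent inhibition gave IC50.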

[4] = molecular target: rat sucrase (partially purified alpha-glucosidase from intestinal rat powder) (Rattus norvegicus, UniProt P23739); experiment: Intestinal alpha-glucosidase assay, sucrose substrate (Glucose GO Kit)
Chain of rat sucrase (partially purified alpha-glucosidase from intestinal rat powder) (P23739 whole entry): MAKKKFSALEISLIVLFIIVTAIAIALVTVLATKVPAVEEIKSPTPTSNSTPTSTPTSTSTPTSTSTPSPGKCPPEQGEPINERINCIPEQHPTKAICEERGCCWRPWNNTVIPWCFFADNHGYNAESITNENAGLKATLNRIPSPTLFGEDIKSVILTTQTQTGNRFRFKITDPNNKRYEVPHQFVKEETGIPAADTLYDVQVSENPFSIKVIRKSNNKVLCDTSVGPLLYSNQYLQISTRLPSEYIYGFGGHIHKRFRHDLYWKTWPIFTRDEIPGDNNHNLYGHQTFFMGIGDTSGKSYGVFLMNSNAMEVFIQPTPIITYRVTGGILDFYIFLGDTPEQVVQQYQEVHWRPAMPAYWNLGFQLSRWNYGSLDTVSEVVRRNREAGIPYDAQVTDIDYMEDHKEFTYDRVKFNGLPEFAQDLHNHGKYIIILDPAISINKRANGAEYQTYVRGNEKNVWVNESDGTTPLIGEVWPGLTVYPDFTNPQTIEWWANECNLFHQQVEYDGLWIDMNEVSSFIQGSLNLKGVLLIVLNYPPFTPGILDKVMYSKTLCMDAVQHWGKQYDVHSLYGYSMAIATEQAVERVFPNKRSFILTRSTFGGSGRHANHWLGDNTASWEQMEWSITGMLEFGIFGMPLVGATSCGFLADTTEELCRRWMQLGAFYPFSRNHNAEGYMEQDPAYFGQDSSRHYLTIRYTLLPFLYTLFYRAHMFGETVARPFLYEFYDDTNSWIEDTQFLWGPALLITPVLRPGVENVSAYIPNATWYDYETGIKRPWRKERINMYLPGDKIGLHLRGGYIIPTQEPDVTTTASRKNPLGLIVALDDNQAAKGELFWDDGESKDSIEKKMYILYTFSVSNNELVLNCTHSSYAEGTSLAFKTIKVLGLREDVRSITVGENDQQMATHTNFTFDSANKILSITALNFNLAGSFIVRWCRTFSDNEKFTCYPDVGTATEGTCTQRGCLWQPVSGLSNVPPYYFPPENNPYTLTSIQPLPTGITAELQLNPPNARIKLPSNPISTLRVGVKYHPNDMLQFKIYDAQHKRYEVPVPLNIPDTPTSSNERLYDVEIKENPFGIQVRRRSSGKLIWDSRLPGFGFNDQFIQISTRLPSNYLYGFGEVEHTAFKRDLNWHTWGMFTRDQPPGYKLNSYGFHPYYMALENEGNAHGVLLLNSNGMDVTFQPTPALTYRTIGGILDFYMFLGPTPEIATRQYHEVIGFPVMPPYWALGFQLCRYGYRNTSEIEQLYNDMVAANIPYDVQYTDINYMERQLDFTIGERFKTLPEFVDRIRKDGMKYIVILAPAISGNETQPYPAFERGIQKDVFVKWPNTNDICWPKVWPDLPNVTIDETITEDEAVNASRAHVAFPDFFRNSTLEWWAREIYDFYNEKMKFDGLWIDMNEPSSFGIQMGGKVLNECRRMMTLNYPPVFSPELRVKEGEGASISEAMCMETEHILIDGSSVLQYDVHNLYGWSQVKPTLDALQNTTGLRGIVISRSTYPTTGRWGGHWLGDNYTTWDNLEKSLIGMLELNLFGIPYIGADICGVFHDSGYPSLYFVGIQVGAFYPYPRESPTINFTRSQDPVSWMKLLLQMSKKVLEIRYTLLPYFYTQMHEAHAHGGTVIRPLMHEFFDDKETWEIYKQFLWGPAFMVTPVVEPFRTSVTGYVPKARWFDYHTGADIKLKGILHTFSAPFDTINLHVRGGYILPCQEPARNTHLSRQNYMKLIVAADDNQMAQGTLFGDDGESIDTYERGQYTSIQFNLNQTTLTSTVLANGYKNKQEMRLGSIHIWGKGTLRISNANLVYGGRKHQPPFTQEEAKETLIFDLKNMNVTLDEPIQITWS
Procedure, shortened: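 Partially purified alpha-glucosidase from rat intestinal powder was preincubated 60 min at 37 °C with serial compound dilutions, then given maltose or sucrose and incubated 30 min at 37 °C.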

[5] = Glucosidase 1, read-out: Glu 1 IC50

Structure (SMILES) | IC50 [1] | IC50 [2] | IC50 [3, 5] | IC50 [4] | IC50 [3]
[N-]=[N+]=Nc1ccc(NCCc2ccc(CCN3C[C@@H](O)[C@H](O)[C@@H](O)[C@@H]3CO)c3ccccc23)c([N+](=O)[O-])c1 (stereo in doubt) [Compound 1178, (2S,3S,4S,5R)-1-[2-(4-{2-[(4-azido-2-nitrophenyl)amino]ethyl}naphthalen-1-yl)ethyl]-2-(hydroxymethyl)piperidine-3,4,5-triol] | 3480 nM | 5930 nM | 2730 nM | 71500 nM | –
[N-]=[N+]=Nc1ccc(NCCc2cc(CCN3C[C@H](O)[C@@H](O)[C@H](O)[C@H]3CO)cs2)c([N+](=O)[O-])c1 [Compound 1179, (2R,3R,4R,5S)-1-[2-(5-{2-[(4-azido-2-nitrophenyl)amino]ethyl}thiophen-3-yl)ethyl]-2-(hydroxymethyl)piperidine-3,4,5-triol] | 1 nM | 692 nM | < 1 nM | 181 nM | –
COc1cc(NCCc2ccc(CCN3C[C@H](O)[C@@H](O)[C@H](O)[C@H]3CO)cc2)cc(-c2cccnn2)c1 [Compound 1157, (2R,3R,4R,5S)-2-(hydroxymethyl)-1-{2-[4-(2-{[3-methoxy-5-(pyridazin-3-yl)phenyl]amino}ethyl)phenyl]ethyl}piperidine-3,4,5-triol] | 107 nM | 292 nM | 336 nM | 228 nM | –
COCCc1ccc(CCCCCN2C[C@H](O)[C@@H](O)[C@H](O)[C@H]2CO)cc1 [Compound 1307, (2R,3R,4R,5S)-2-(hydroxymethyl)-1-{5-[4-(2-methoxyethyl)phenyl]pentyl}piperidine-3,4,5-triol] | 32 nM | 950 nM | – | 387 nM | 1160 nM
OC[C@@H]1[C@@H](O)[C@H](O)[C@@H](O)CN1CCc1ccc(CCNc2cc(Cl)cc(C3=CCOCC3)c2)cc1 [Compound 1160, (2R,3R,4R,5S)-1-{2-[4-(2-{[3-chloro-5-(3,6-dihydro-2H-pyran-4-yl)phenyl]amino}ethyl)phenyl]ethyl}-2-(hydroxymethyl)piperidine-3,4,5-triol] | 75 nM | 24 nM | 1570 nM | 931 nM | –
[N-]=[N+]=Nc1ccc(NCCc2cc(CCN3C[C@H](O)[C@@H](O)[C@H](O)[C@H]3CO)ccc2C2CCCCC2)c([N+](=O)[O-])c1 [Compound 1171, (2R,3R,4R,5S)-1-[2-(3-{2-[(4-azido-2-nitrophenyl)amino]ethyl}-4-cyclohexylphenyl)ethyl]-2-(hydroxymethyl)piperidine-3,4,5-triol] | 5660 nM | 2080 nM | 301 nM | 10700 nM | –
CS(=O)(=O)c1cc(NCc2cccc(CN3C[C@H](O)[C@@H](O)[C@H](O)[C@H]3CO)c2)cc(-c2cccnn2)c1 [Compound 1040, (2R,3R,4R,5S)-2-(hydroxymethyl)-1-{[3-({[3-methanesulfonyl-5-(pyridazin-3-yl)phenyl]amino}methyl)phenyl]methyl}piperidine-3,4,5-triol] | 38 nM | 1300 nM | – | 126 nM | 17 nM
OC[C@@H]1[C@@H](O)[C@H](O)[C@@H](O)CN1Cc1ccc(CNc2cc(-c3cccnn3)cc(C3CC3)c2)cc1 [Compound 1012, (2R,3R,4R,5S)-1-{[4-({[3-cyclopropyl-5-(pyridazin-3-yl)phenyl]amino}methyl)phenyl]methyl}-2-(hydroxymethyl)piperidine-3,4,5-triol] | 9 nM | 350 nM | 18 nM | 33 nM | –
N#Cc1cc(NCCCCCCN2C[C@H](O)[C@@H](O)[C@H](O)[C@H]2CO)cc(-c2ncccn2)c1 [Compound 1130, 3-(pyrimidin-2-yl)-5-({6-[(2R,3R,4R,5S)-3,4,5-trihydroxy-2-(hydroxymethyl)piperidin-1-yl]hexyl}amino)benzonitrile] | 4 nM | 12 nM | 244 nM | 30 nM | –
